Measurements reported in patent US20110040086A1, “Novel Beta-Lactam Antibiotics, Methods for Their Production, and Their Use” (DRITTE PATENTPORTFOLIO BETEILIGUNGSGESELLSCHAFT MB, priority 2007, published 2011).

How the values were obtained:
[1] = system: Enterococcus faecalis 769; test: agar diffusion test (Test System II, multi-resistant germs); format: cell-based; design: key: r = resistant (no detectable zone of inhibition)
How it was run: (§1)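 Stepped amounts of each substance (10, 50, 100 μg) were applied to carrier discs from methanol or water according to solubility. These were laid on Müller-Hinton agar II inoculated at McFarland 0.5, and zones of inhibition were read following overnight incubation (18-20 h) at 37 °C.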

[2] = system: Staphylococcus aureus 315; test: as above; format: cell-based; design: key: r = resistant (no detectable zone of inhibition)
How it was run: as §1

[3] = system: S. aureus 38418; test: as above; format: cell-based, Staphylococcus aureus
How it was run: as §1

[4] = system: Escherichia coli SBUG 1135; test: agar diffusion test (Test System 1, antimicrobial effect); format: cell-based; design: key: r = resistant (no detectable zone of inhibition)
How it was run: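 E. coli SBUG 1135 grown 17 h at 37° C, 180 rpm, diluted 1:100 and seeded in nutrient agar at ~10^6 cells. Discs loaded with 10, 50 or 100 μg compound (methanol or water); inhibition-zone diameter (mm) read after 20 h at 37° C.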

[5] = system: S. epidermidis 125; test: agar diffusion test (Test System II, multi-resistant germs); format: cell-based, Staphylococcus epidermidis; design: key to Diameter of zone of inhibition: r = resistant (no detectable zone of inhibition)
How it was run: as §1

[6] = system: B. subtilis AWD 166; test: agar diffusion test (antimicrobial effect); format: cell-based, Bacillus subtilis
How it was run: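 Nutrient agar seeded with B. subtilis AWD 166 to give dense non-confluent colonies; compounds in methanol or distilled water applied to discs at 10, 50, 100 μg. After 20 h at 37 °C, inhibition zone diameter measured in mm.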

[7] = system: S. epidermidis 563; test: agar diffusion test (Test System II, multi-resistant germs); format: cell-based, Staphylococcus epidermidis; design: key: r = resistant (no detectable zone of inhibition)
How it was run: as §1

[8] = system: S. epidermidis 1071; test: as above; format: cell-based, Staphylococcus epidermidis; design: key: r = resistant (no detectable zone of inhibition)
How it was run: as §1

[9] = system: S. epidermidis 847; test: as above; format: cell-based, Staphylococcus epidermidis; design: key: r = resistant (no detectable zone of inhibition)
How it was run: as §1

[10] = system: S. epidermidis 1068; test: as above; format: cell-based, Staphylococcus epidermidis; design: key: r = resistant (no detectable zone of inhibition)
How it was run: as §1

[11] = system: Bacillus megaterium SBUG 1152; test: agar diffusion test (Test System 1, antimicrobial effect); format: cell-based
How it was run: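 B. megaterium SBUG 1152 grown overnight (17 h, 37° C., 180 rpm) and seeded at 10^6 cells per 10 ml nutrient agar. Compound at 10, 50 and 100 μg, dissolved in methanol or water, applied to paper discs. Inhibition-zone diameter (mm) read after 20 h at 37° C.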

[12] = system: S. aureus 33490; test: agar diffusion test (Test System II, multi-resistant germs); format: cell-based, Staphylococcus aureus; design: key: r = resistant (no detectable zone of inhibition)
How it was run: as §1

[13] = system: S. aureus 526; test: as above; format: cell-based, Staphylococcus aureus; design: key: r = resistant (no detectable zone of inhibition)
How it was run: as §1

[14] = system: S. aureus 34289; test: as above; format: cell-based, Staphylococcus aureus; design: key: r = resistant (no detectable zone of inhibition)
How it was run: as §1

[15] = system: S. aureus 520; test: as above; format: cell-based, Staphylococcus aureus; design: key: r = resistant (no detectable zone of inhibition)
How it was run: as §1

[16] = system: S. aureus 36881; test: as above; format: cell-based, Staphylococcus aureus; design: key: r = resistant (no detectable zone of inhibition)
How it was run: as §1

[17] = system: S. aureus North Germany strain; test: as above; format: cell-based, Staphylococcus aureus; design: key: r = resistant (no detectable zone of inhibition)
How it was run: as §1

[18] = system: S. aureus 39105; test: as above; format: cell-based, Staphylococcus aureus; design: key: r = resistant (no detectable zone of inhibition)
How it was run: as §1

Substance: 7-{2-[2-(2-hydroxyethylcarbamoyl)-3,6-dioxocyclohexa-1,4-dienylamino]-2-phenyl-acetylamino}-desacetoxycephalosporanic acid [1e]
- Diameter of zone of inhibition ([1]; Quantity n 0.029): r
- Diameter of zone of inhibition ([1]; Quantity n 0.14): r
- Diameter of zone of inhibition ([1]; Quantity n 0.29): r
- Diameter of zone of inhibition ([2]; Quantity n 0.029): r
- Diameter of zone of inhibition ([2]; Quantity n 0.14): r
- Diameter of zone of inhibition ([2]; Quantity n 0.29): 12 mm
- Diameter of zone of inhibition ([3]; Quantity n [mol] 0.029): 14 mm
- Diameter of zone of inhibition ([3]; Quantity n [mol] 0.14): 26 mm
- Diameter of zone of inhibition ([3]; Quantity n [mol] 0.29): 30 mm
- Diameter of zone of inhibition ([4]; Quantity n 0.029): r^2
- Diameter of zone of inhibition ([4]; Quantity n 0.14): 16 mm
- Diameter of zone of inhibition ([4]; Quantity n 0.29): 18 mm
- Diameter of zone of inhibition ([5]; Quantity n 0.029): r
- Diameter of zone of inhibition ([5]; Quantity n 0.14): 24 mm
- Diameter of zone of inhibition ([5]; Quantity n 0.29): 28 mm
- Diameter of zone of inhibition ([6]; Quantity n 0.029): 22 mm
- Diameter of zone of inhibition ([6]; Quantity n 0.14): 30 mm
- Diameter of zone of inhibition ([6]; Quantity n 0.29): 32 mm
- Diameter of zone of inhibition ([7]; Quantity n 0.029): r
- Diameter of zone of inhibition ([7]; Quantity n 0.14): 18 mm
- Diameter of zone of inhibition ([7]; Quantity n 0.29): 24 mm
- Diameter of zone of inhibition ([8]; Quantity n 0.029): 10 mm
- Diameter of zone of inhibition ([8]; Quantity n 0.14): 18 mm
- Diameter of zone of inhibition ([8]; Quantity n 0.29): 20 mm
- Diameter of zone of inhibition ([9]; Quantity n [mol] 0.029): r
- Diameter of zone of inhibition ([9]; Quantity n [mol] 0.14): 16 mm
- Diameter of zone of inhibition ([9]; Quantity n [mol] 0.29): 20 mm
- Diameter of zone of inhibition ([10]; Quantity n 0.029): r
- Diameter of zone of inhibition ([10]; Quantity n 0.14): 14 mm
- Diameter of zone of inhibition ([10]; Quantity n 0.29): 16 mm
- Diameter of zone of inhibition ([11]; Quantity n 0.029): 20 mm
- Diameter of zone of inhibition ([11]; Quantity n 0.14): 28 mm
- Diameter of zone of inhibition ([11]; Quantity n 0.29): 32 mm
- Diameter of zone of inhibition ([12]; Quantity n [μmol] 0.029): 8 mm
- Diameter of zone of inhibition ([12]; Quantity n [μmol] 0.14): 16 mm
- Diameter of zone of inhibition ([12]; Quantity n [μmol] 0.29): 20 mm
- Diameter of zone of inhibition ([13]; Quantity n 0.029): r
- Diameter of zone of inhibition ([13]; Quantity n 0.14): r
- Diameter of zone of inhibition ([13]; Quantity n 0.29): r
- Diameter of zone of inhibition ([14]; Quantity n [mol] 0.029): r
- Diameter of zone of inhibition ([14]; Quantity n [mol] 0.14): r
- Diameter of zone of inhibition ([14]; Quantity n [mol] 0.29): r
- Diameter of zone of inhibition ([15]; Quantity n [mol] 0.029): r
- Diameter of zone of inhibition ([15]; Quantity n [mol] 0.14): r
- Diameter of zone of inhibition ([15]; Quantity n [mol] 0.29): r
- Diameter of zone of inhibition ([16]; Quantity n 0.029): r
- Diameter of zone of inhibition ([16]; Quantity n 0.14): r
- Diameter of zone of inhibition ([16]; Quantity n 0.29): 14 mm
- Diameter of zone of inhibition ([17]; Quantity n 0.029): r
- Diameter of zone of inhibition ([17]; Quantity n 0.14): 10 mm
- Diameter of zone of inhibition ([17]; Quantity n 0.29): 16 mm
- Diameter of zone of inhibition ([18]; Quantity n 0.029): r
- Diameter of zone of inhibition ([18]; Quantity n 0.14): r
- Diameter of zone of inhibition ([18]; Quantity n 0.29): 14 mm

Substance: 7-{2-2-(2-hydroxyethylcarbamoyl)-3,6-dioxyocyclohexa-1,4-dienylamino]-2-(4-hydroxyphenyl)-acetylamino}-desacetoxycephalosporanic acid [1a]
- Diameter of zone of inhibition ([1]; Quantity n 0.019): r
- Diameter of zone of inhibition ([1]; Quantity n 0.1): r
- Diameter of zone of inhibition ([1]; Quantity n 0.19): r
- Diameter of zone of inhibition ([2]; Quantity n 0.019): r
- Diameter of zone of inhibition ([2]; Quantity n 0.1): 10 mm
- Diameter of zone of inhibition ([2]; Quantity n 0.19): 16 mm
- Diameter of zone of inhibition ([3]; Quantity n [mol] 0.019): 14 mm
- Diameter of zone of inhibition ([3]; Quantity n [mol] 0.1): 24 mm
- Diameter of zone of inhibition ([3]; Quantity n [mol] 0.19): 26 mm
- Diameter of zone of inhibition ([4]; Quantity n 0.019): r^2
- Diameter of zone of inhibition ([4]; Quantity n 0.1): 14 mm
- Diameter of zone of inhibition ([4]; Quantity n 0.19): 16 mm
- Diameter of zone of inhibition ([5]; Quantity n 0.019): 14 mm
- Diameter of zone of inhibition ([5]; Quantity n 0.1): 24 mm
- Diameter of zone of inhibition ([5]; Quantity n 0.19): 28 mm
- Diameter of zone of inhibition ([6]; Quantity n 0.019): 24 mm
- Diameter of zone of inhibition ([6]; Quantity n 0.1): 30 mm
- Diameter of zone of inhibition ([6]; Quantity n 0.19): 32 mm
- Diameter of zone of inhibition ([7]; Quantity n 0.019): r
- Diameter of zone of inhibition ([7]; Quantity n 0.1): 10 mm
- Diameter of zone of inhibition ([7]; Quantity n 0.19): 16 mm
- Diameter of zone of inhibition ([8]; Quantity n 0.019): r
- Diameter of zone of inhibition ([8]; Quantity n 0.1): 18 mm
- Diameter of zone of inhibition ([8]; Quantity n 0.19): 20 mm
- Diameter of zone of inhibition ([9]; Quantity n [mol] 0.019): r
- Diameter of zone of inhibition ([9]; Quantity n [mol] 0.1): 16 mm
- Diameter of zone of inhibition ([9]; Quantity n [mol] 0.19): 20 mm
- Diameter of zone of inhibition ([10]; Quantity n 0.019): r
- Diameter of zone of inhibition ([10]; Quantity n 0.1): 10 mm
- Diameter of zone of inhibition ([10]; Quantity n 0.19): 16 mm
- Diameter of zone of inhibition ([11]; Quantity n 0.019): 22 mm
- Diameter of zone of inhibition ([11]; Quantity n 0.1): 30 mm
- Diameter of zone of inhibition ([11]; Quantity n 0.19): 32 mm
- Diameter of zone of inhibition ([12]; Quantity n [μmol] 0.019): r
- Diameter of zone of inhibition ([12]; Quantity n [μmol] 0.1): 14 mm
- Diameter of zone of inhibition ([12]; Quantity n [μmol] 0.19): 18 mm
- Diameter of zone of inhibition ([13]; Quantity n 0.019): r
- Diameter of zone of inhibition ([13]; Quantity n 0.1): r
- Diameter of zone of inhibition ([13]; Quantity n 0.19): 10 mm
- Diameter of zone of inhibition ([14]; Quantity n [mol] 0.019): r
- Diameter of zone of inhibition ([14]; Quantity n [mol] 0.1): r
- Diameter of zone of inhibition ([14]; Quantity n [mol] 0.19): r
- Diameter of zone of inhibition ([15]; Quantity n [mol] 0.019): r
- Diameter of zone of inhibition ([15]; Quantity n [mol] 0.1): r
- Diameter of zone of inhibition ([15]; Quantity n [mol] 0.19): 12 mm
- Diameter of zone of inhibition ([16]; Quantity n 0.019): r
- Diameter of zone of inhibition ([16]; Quantity n 0.1): 10 mm
- Diameter of zone of inhibition ([16]; Quantity n 0.19): 16 mm
- Diameter of zone of inhibition ([17]; Quantity n 0.019): r
- Diameter of zone of inhibition ([17]; Quantity n 0.1): 16 mm
- Diameter of zone of inhibition ([17]; Quantity n 0.19): 18 mm
- Diameter of zone of inhibition ([18]; Quantity n 0.019): r
- Diameter of zone of inhibition ([18]; Quantity n 0.1): r
- Diameter of zone of inhibition ([18]; Quantity n 0.19): 14 mm
